Measured values reported in patent US20130317029A1 (PORTOLA PHARMACEUTICALS, INC., priority 2010, published 2013).

Experiments:
[1] = molecular target: T1, full length active recombinant SYK enzyme (Homo sapiens, UniProt P43405); assay: Inhibition of Syk tyrosine phosphorylation activity (LANCE TR-FRET kinase assay); type: biochemical
T1 construct: full length active recombinant SYK enzyme (Millipore, Calif.); purchased Millipore
How it was run: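 Full-length active recombinant SYK (1 nM) phosphorylated biotinylated SYK-specific peptide (550 nM) with 100 μM ATP in 50 mM Tris pH 7.5, 5 mM MgCl2, 1 mM DTT, 3% DMSO, 1 h at room temperature. EDTA quench with Eu-anti-phosphotyrosine and SA-APC, 1 h TR-FRET read; IC50 by non-linear regression.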

[2] = system: refractory NHL and chronic lymphocytic leukemia; details: cited from earlier work
[3] = system: lymphoma cell lines and primary human lymphoma samples; details: cited from earlier work
Src kinsase = details: cited from earlier work
JAK kinases = details: cited from earlier work
ITAM signaling = details: in response to various stimuli, including FcεR1 and BCR induced Syk activation; cited from earlier work

SMILES	IC50 [1]	further results
CC[C@@H](Nc1nc(Nc2cccc(OC(F)(F)F)c2)c(C(N)=O)c(=O)[nH]1)C(N)=O [Example 102, (R)-2-(1-amino-1-oxobutan-2-ylamino)-4-(3-(trifluoromethoxy)phenylamino)-6-oxo-1,6-dihydropyrimidine-5-carboxamide]	1 to 10 nM	
CNC(=O)[C@@H](CC(C)C)Nc1nc(Nc2ccc3ncsc3c2)c(C(N)=O)c(=O)[nH]1 [Example 103, (R)-4-(benzo[d]thiazol-6-ylamino)-2-(4-methyl-1-(methylamino)-1-oxopentan-2-ylamino)-6-oxo-1,6-dihydropyrimidine-5-carboxamide]	10 to 100 nM	
CNC(=O)[C@@H](CC(C)C)Nc1nc(Nc2cccc(-n3cccn3)c2)c(C(N)=O)c(=O)[nH]1 [Example 104, (R)-4-(3-(1H-pyrazol-1-yl)phenylamino)-2-(4-methyl-1-(methylamino)-1-oxopentan-2-ylamino)-6-oxo-1,6-dihydropyrimidine-5-carboxamide]	> 1000 nM	
CNC(=O)[C@@H](CC(C)C)Nc1nc(Nc2ccc3[nH]ncc3c2)c(C(N)=O)c(=O)[nH]1 [Example 105, (R)-4-(1H-indazol-5-ylamino)-2-(4-methyl-1-(methylamino)-1-oxopentan-2-ylamino)-6-oxo-1,6-dihydropyrimidine-5-carboxamide]	100 to 1000 nM	
CC(C)C[C@@H](Nc1nc(Nc2ccc(-c3cccnc3)cc2)c(C(N)=O)c(=O)[nH]1)C(N)=O [Example 106, (R)-2-(1-amino-4-methyl-1-oxopentan-2-ylamino)-6-oxo-4-(4-(pyridin-3-yl)phenylamino)-1,6-dihydropyrimidine-5-carboxamide]	1 to 10 nM	
CC(C)C[C@@H](Nc1nc(Nc2ccc3cccnc3c2)c(C(N)=O)c(=O)[nH]1)C(N)=O [Example 107, (R)-2-(1-amino-4-methyl-1-oxopentan-2-ylamino)-6-oxo-4-(quinolin-7-ylamino)-1,6-dihydropyrimidine-5-carboxamide]	1 to 10 nM	
CC(C)C[C@@H](Nc1nc(Nc2cnc3ccccc3c2)c(C(N)=O)c(=O)[nH]1)C(N)=O [Example 108, (R)-2-(1-amino-4-methyl-1-oxopentan-2-ylamino)-6-oxo-4-(quinolin-3-ylamino)-1,6-dihydropyrimidine-5-carboxamide]	< 1 nM	
CC[C@@H](Nc1nc(Nc2cnc3ccccc3c2)c(C(N)=O)c(=O)[nH]1)C(N)=O [Example 109, (R)-2-(1-amino-1-oxobutan-2-ylamino)-6-oxo-4-(quinolin-3-ylamino)-1,6-dihydropyrimidine-5-carboxamide]	< 1 nM	
COc1ccc(Nc2nc(N[C@H](CC(C)C)C(N)=O)[nH]c(=O)c2C(N)=O)cn1 [Example 110]	1 to 10 nM	
CC(C)C[C@@H](Nc1nc(Nc2ccc(-c3ccncc3)cc2)c(C(N)=O)c(=O)[nH]1)C(N)=O [Example 111, (R)-2-(1-amino-4-methyl-1-oxopentan-2-ylamino)-6-oxo-4-(4-(pyridin-4-yl)phenylamino)-1,6-dihydropyrimidine-5-carboxamide]	1 to 10 nM	
CC(C)C[C@@H](Nc1nc(Nc2cccc(-c3ccncc3)c2)c(C(N)=O)c(=O)[nH]1)C(N)=O [Example 112, (R)-2-(1-amino-4-methyl-1-oxopentan-2-ylamino)-6-oxo-4-(3-(pyridin-4-yl)phenylamino)-1,6-dihydropyrimidine-5-carboxamide]	1 to 10 nM	
CC(C)C[C@@H](Nc1nc(Nc2ccc(-c3ccccn3)cc2)c(C(N)=O)c(=O)[nH]1)C(N)=O [Example 113, (R)-2-(1-amino-4-methyl-1-oxopentan-2-ylamino)-6-oxo-4-(4-(pyridin-2-yl)phenylamino)-1,6-dihydropyrimidine-5-carboxamide]	1 to 10 nM	
CC(C)C[C@@H](Nc1nc(Nc2cnn(C)c2)c(C(N)=O)c(=O)[nH]1)C(N)=O [Example 114, (R)-2-(1-amino-4-methyl-1-oxopentan-2-ylamino)-4-(1-methyl-1H-pyrazol-4-ylamino)-6-oxo-1,6-dihydropyrimidine-5-carboxamide]	1 to 10 nM	
CC(C)C[C@@H](Nc1nc(Nc2ccc(-n3ccnc3)cc2)c(C(N)=O)c(=O)[nH]1)C(N)=O [Example 115, (R)-2-(1-amino-4-methyl-1-oxopentan-2-ylamino)-4-(4-(1H-imidazol-1-yl)phenylamino)-6-oxo-1,6-dihydropyrimidine-5-carboxamide]	1 to 10 nM	
CC[C@@H](Nc1nc(Nc2ccc(-n3ccnc3)cc2)c(C(N)=O)c(=O)[nH]1)C(N)=O [Example 116, (R)-2-(1-amino-1-oxobutan-2-ylamino)-4-(4-(1H-imidazol-1-yl)phenylamino)-6-oxo-1,6-dihydropyrimidine-5-carboxamide]	1 to 10 nM	
CC(C)C[C@@H](Nc1nc(Nc2ccn(C)n2)c(C(N)=O)c(=O)[nH]1)C(N)=O [Example 117, (R)-2-(1-amino-4-methyl-1-oxopentan-2-ylamino)-4-(1-methyl-1H-pyrazol-3-ylamino)-6-oxo-1,6-dihydropyrimidine-5-carboxamide]	100 to 1000 nM	
CC(C)C[C@@H](Nc1nc(Nc2cccc(-n3ccnc3)c2)c(C(N)=O)c(=O)[nH]1)C(N)=O [Example 118, (R)-2-(1-amino-4-methyl-1-oxopentan-2-ylamino)-4-(3-(1H-imidazol-1-yl)phenylamino)-6-oxo-1,6-dihydropyrimidine-5-carboxamide]	1 to 10 nM	
CC[C@@H](Nc1nc(Nc2cccc(-n3ccnc3)c2)c(C(N)=O)c(=O)[nH]1)C(N)=O [Example 119, (R)-2-(1-amino-1-oxobutan-2-ylamino)-4-(3-(1H-imidazol-1-yl)phenylamino)-6-oxo-1,6-dihydropyrimidine-5-carboxamide]	1 to 10 nM	
COc1cc(Nc2ncc(F)c(Nc3ccc4c(n3)NC(=O)C(C)(C)O4)n2)cc(OC)c1OC [Example R406]		phase II clinical trial outcome [2]: favorable results; BCR signaling ([3]; lymphoma cell lines and primary human lymphoma samples): attenuates BCR signaling; apoptosis ([3]; lymphoma cell lines): resulting in apoptosis; activity against Src kinase (Src kinsase): not against; activity against JAK kinases (JAK kinases): active; inhibition of ITAM signaling (ITAM signaling): inhibit ITAM signaling
